Active and inactive are the calls of the source. No cut-off for these calls is given here.

Series [1] concerns Plasmodium berghei. Briefly: Antiplasmodial activity against Plasmodium berghei infected in Swiss Webster mouse model assessed as reduction in parasitemia at 6 mg/kg, po administered once daily for 4 days and measured after 11 days by Giemsa staining based microscopic analysis. Type of series: functional, organism-based. Particulars: time 11.0 day.
In series [2] the test system is Plasmodium berghei. Briefly: Antiplasmodial activity against Plasmodium berghei infected in Swiss Webster mouse model assessed as reduction in parasitemia at 30 mg/kg, po administered as single dose and measured after 11 days by Giemsa staining based microscopic analysis. It is filed as functional, organism-based. As to conditions: time 11.0 day.
Series [3] deals with Plasmodium berghei. Briefly: Antiplasmodial activity against Plasmodium berghei infected in Swiss Webster mouse model assessed as reduction in parasitemia at 80 mg/kg, po administered as single dose and measured after 11 days by Giemsa staining based microscopic analysis. It is filed as functional, organism-based. Particulars: time 11.0 day.
Series [4] relates to Plasmodium berghei. In words: Antiplasmodial activity against Plasmodium berghei infected in Swiss Webster mouse model assessed as reduction in parasitemia at 20 mg/kg, po administered as single dose and measured after 30 days by Giemsa staining based microscopic analysis. Type of series: functional, organism-based. Particulars: time 30.0 day.
Series [5] is described as follows: Aqueous solubility of the compound in PBS at pH 7.4. It is filed as physicochemical.
Series [6] concerns Plasmodium berghei. In words: Antiplasmodial activity against Plasmodium berghei infected in Swiss Webster mouse model assessed as reduction in parasitemia at 40 mg/kg, po administered as single dose and measured after 11 days by Giemsa staining based microscopic analysis. Type of series: functional, organism-based. Particulars: time 11.0 day.
The test system of series [7] is Plasmodium berghei. In words: Antiplasmodial activity against Plasmodium berghei infected in Swiss Webster mouse model assessed as reduction in parasitemia at 40 mg/kg, po administered as single dose and measured after 30 days by Giemsa staining based microscopic analysis. Type of series: functional, organism-based. Particulars: time 30.0 day.
Series [8] concerns Plasmodium berghei. Briefly: Antiplasmodial activity against Plasmodium berghei infected in Swiss Webster mouse model assessed as reduction in parasitemia at 80 mg/kg, po administered as single dose and measured after 30 days by Giemsa staining based microscopic analysis. Type of series: functional, organism-based. As to conditions: time 30.0 day.
Series [9] has as its system Plasmodium berghei. In words: Antiplasmodial activity against Plasmodium berghei infected in Swiss Webster mouse model assessed as reduction in parasitemia at 10 mg/kg, po administered once daily for 4 days and measured after 30 days by Giemsa staining based microscopic analysis. Type of series: functional, organism-based. Particulars: time 30.0 day.
For series [10], the system named is Plasmodium berghei. Briefly: Antiplasmodial activity against Plasmodium berghei infected in Swiss Webster mouse model assessed as reduction in parasitemia at 4 mg/kg, po administered once daily for 4 days and measured after 11 days by Giemsa staining based microscopic analysis. It is filed as functional, organism-based. As to conditions: time 11.0 day.
For series [11], the system named is Plasmodium falciparum. In words: Antiplasmodial activity against chloroquine-resistant ring stage Plasmodium falciparum W2 infected in human erythrocytes assessed as reduction in parasite growth incubated for 48 hrs by YOYO-1 dye based flow cytometric analysis. It is filed as functional, organism-based. Particulars: W2, Erythrocyte. (Flow cytometry measures light scatter and fluorescence of single cells or particles in a stream.)

The test system of series [12] is Plasmodium berghei. In words: Antiplasmodial activity against Plasmodium berghei infected in Swiss Webster mouse model assessed as reduction in parasitemia at 10 mg/kg, po administered once daily for 4 days and measured after 11 days by Giemsa staining based microscopic analysis. It is filed as functional, organism-based. Particulars: time 11.0 day.
Series [13] concerns Plasmodium berghei. In words: Antiplasmodial activity against Plasmodium berghei infected in Swiss Webster mouse model assessed as reduction in parasitemia at 6 mg/kg, po administered once daily for 4 days and measured after 30 days by Giemsa staining based microscopic analysis. As to conditions: time 30.0 day. Type of series: functional, organism-based.
The test system of series [14] is Plasmodium berghei. Briefly: Antiplasmodial activity against Plasmodium berghei infected in Swiss Webster mouse model assessed as reduction in parasitemia at 30 mg/kg, po administered as single dose and measured after 30 days by Giemsa staining based microscopic analysis. It is filed as functional, organism-based. Particulars: time 30.0 day.
Series [15] relates to Plasmodium berghei. Briefly: Antiplasmodial activity against Plasmodium berghei infected in Swiss Webster mouse model assessed as reduction in parasitemia at 2 mg/kg, po administered once daily for 4 days and measured after 30 days by Giemsa staining based microscopic analysis. It is filed as functional, organism-based. As to conditions: time 30.0 day.
Series [16] has as its system Plasmodium berghei. Briefly: Antiplasmodial activity against Plasmodium berghei infected in Swiss Webster mouse model assessed as reduction in parasitemia at 2 mg/kg, po administered once daily for 4 days and measured after 11 days by Giemsa staining based microscopic analysis. It is filed as functional, organism-based. As to conditions: time 11.0 day.
A short description of series [17]: Stability in human liver microsomes assessed as intrinsic clearance at 1 uM measured upto 60 mins by LC-MS/MS analysis. It is filed as ADME, Microsome. Particulars: read-out: CLH. (In general: Liver microsomes are a subcellular fraction often used to study metabolism.)
The subject of series [18] is Plasmodium berghei. Briefly: Antiplasmodial activity against Plasmodium berghei infected in Swiss Webster mouse model assessed as reduction in parasitemia at 4 mg/kg, po administered once daily for 4 days and measured after 30 days by Giemsa staining based microscopic analysis. Particulars: time 30.0 day. It is filed as functional, organism-based.

As usually defined, the solubility is how much of the substance goes into solution per volume. Read a low solubility as a poorly soluble substance. The EC50 is the concentration needed to bring the measured effect to its halfway point. Regarding `c1cc([C@H]2CC[C@@]3(CC2)OOC2(O3)C3CC4CC(C3)CC2C4)ccc1OCCN1CCOCC1` (stereo not given in full), the outcome in series [1], in [2], in series [3], in series [4], in [6] and in series [7] was Active. In addition, the outcome in series [8], in [9], in [10], in series [12], in [13] and in [14] was Active. In series [5], this molecule showed a solubility below 2.5 µM. Besides, in series [11], the EC50 worked out at 11.2 nM.
With `C[C@@H]1CC[C@H]2[C@@H](C)C(=O)O[C@@H]3O[C@@]4(C)CC[C@@H]1[C@]32OO4` [ARTEMISININ], in [11], the EC50 was 17.3 nM.
In the case of `c1cc([C@H]2CCC[C@@]3(C2)OOC2(O3)C3CC4CC(C3)CC2C4)ccc1OCCN1CCOCC1` (stereo not given in full), the outcome in series [15], in [1], in [16], in [4], in series [9] and in series [18] was inactive. Moreover, the outcome in series [10], in [13] and in series [14] was inactive. The outcome in series [2], in series [3] and in [8] was Active. Also, the microsomal CLint at 1 µM in [17] was determined as 21.3 µL/min/mg. Also, the EC50 in series [11] is 24.1 nM.
On to `O=C([O-])Cc1ccccc1Nc1c(Cl)cccc1Cl.[Na+]` [DICLOFENAC SODIUM], for which the solubility in series [5] is 199 µM.

The record behind these values is ChEMBL document CHEMBL5252657, “Artefenomel Regioisomer RLA-3107 Is a Promising Lead for the Discovery of Next-Generation Endoperoxide Antimalarials” (ACS Med Chem Lett, 2023).
